We go through three molecules from article PMC12481029, “Design, synthesis, antiproliferative assessments, and computational studies of new quinolin-2(1H)-ones as dual EGFR/HER-2 inhibitors” (Frontiers in Chemistry, 2025).

One data set relates to Bax. Nature of the data set: Bax level assay. The conditions noted are these: MCF-7 cells.
A further data set concerns the target HER-2 (Homo sapiens, UniProt P04626). Nature of the data set: HER-2 inhibitory assay (ADP-Glo kinase assay). Background: ADP-Glo turns the ADP formed in a reaction into a luminescent signal.
Another data set has as its system Caspase-9. Briefly: Caspase-9 activation assay. Format: cell-based, human. The conditions noted are these: MCF-7 cells. The method, then:
To elucidate the apoptotic mechanism of compounds 3d and 5a, whether via the intrinsic or extrinsic pathway, their impact on caspase-8 and caspase-9 was evaluated.
RPMI 1640 with 10% FBS was used to assist the cells grow at 37 °C, and then the cells were treated with the compounds being studied to check the activity of caspase-3, -8, and -9 ([Hisham et al., 2019]). Refer to Supplementary Appendix A.
Cells were obtained from American Type Culture Collection, cells were grown in RPMI 1640 containing 10% fetal bovine serum at 37°C, stimulated with the compounds to be tested for caspase8, and lysed with Cell Extraction Buffer. This lysate was diluted in Standard Diluent Buffer over the range of the assay and measured for human active caspase-8 content. (Cells are Plated in a density of 1.2 – 1.8 × 10,000 cells/well in a volume of 100µl complete growth medium + 100 ul of the tested compound per well in a 96-well plate for 24 hours before the enzyme assay for Tubulin.). The absorbance of each microwell was read on a spectro-photometer at 450 nm. A standard curve is prepared from 7human Caspase-8 standard dilutions and human Caspase-8 concentration determined.

For the next data set, the target named is EGFR (Homo sapiens, UniProt P00533). Nature of the data set: EGFR inhibitory assay (EGFR-TK test). The conditions noted are these: EGFR inhibition IC50 ± SEM.
Sequence of EGFR (P00533 669-1210): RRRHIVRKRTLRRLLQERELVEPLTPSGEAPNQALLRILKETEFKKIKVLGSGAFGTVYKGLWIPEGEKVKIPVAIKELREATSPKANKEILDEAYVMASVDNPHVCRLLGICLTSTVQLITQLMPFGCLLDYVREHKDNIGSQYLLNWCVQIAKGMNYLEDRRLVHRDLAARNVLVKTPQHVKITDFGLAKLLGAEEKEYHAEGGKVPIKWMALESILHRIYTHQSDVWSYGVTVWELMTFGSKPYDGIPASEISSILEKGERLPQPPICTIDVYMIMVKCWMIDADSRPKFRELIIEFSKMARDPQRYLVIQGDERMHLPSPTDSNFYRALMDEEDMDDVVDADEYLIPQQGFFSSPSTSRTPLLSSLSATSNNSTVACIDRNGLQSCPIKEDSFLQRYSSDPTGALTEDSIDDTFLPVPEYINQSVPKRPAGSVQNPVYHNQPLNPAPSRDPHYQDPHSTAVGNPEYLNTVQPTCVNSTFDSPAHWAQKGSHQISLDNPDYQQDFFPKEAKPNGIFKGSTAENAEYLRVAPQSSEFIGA
The subject of data set [1] is four human cancer cell lines (A-549, MCF-7, Panc-1, HT-29). Nature of the data set: Antiproliferative assay, average over four cancer cell lines. Format: cell-based.
The next data set relates to Cytochrome C. Nature of the data set: Cytochrome C assay. The note with it: MCF-7 cells.
Data set [2] concerns breast (MCF-7) cancer cell line. Nature of the data set: Antiproliferative assay, MCF-7. In kind it is cell-based. The conditions noted are these: Homo sapiens, MCF7; read-out: Antiproliferative activity IC50 ± SEM, MCF-7. The text has this:
(§1) The MTT assay ([Al-Wahaibi et al., 2022]; [Mahmoud et al., 2023]) was employed to assess the antiproliferative effects of compounds 3a-h and 5a-g on four human cancer cell lines: colon (HT-29) cancer, pancreatic (Panc-1) cancer, lung (A-549) cancer, and breast (MCF-7) cancer cell lines. Erlotinib was applied as a reference. Table 1 presents the median inhibitory concentration (IC50) and average IC50 (GI50) values for each compound evaluated on the four cancer cell lines.
(§2) Compounds 3a-h and 5a-g were tested for their antiproliferative activities on four human cancer cell lines: colon (HT-29), pancreatic (Panc-1), lung (A-549), and breast (MCF-7) using the MTT assay ([Al-Wahaibi et al., 2022]; [Mahmoud et al., 2023]). Erlotinib was applied as a reference.
(§3) To explore the antiproliferative potential of compounds propidium iodide fluorescence assay was performed using different cell lines such as Panc-1 (pancreas cancer cell line), MCF-7 (breast cancer cell line), HT-29 (colon cancer cell line) and A-549 (epithelial cancer cell line), respectively. To calculate the total nuclear DNA, a fluorescent dye (propidium iodide, PI) is used which can attach to the DNA, thus offering a quick and precise technique. PI cannot pass through the cell membrane and its signal intensity can be considered as directly proportional to quantity of cellular DNA. Cells whose cell membranes are damaged or have changed permeability are counted as dead ones. The assay was performed by seeding the cells of different cell lines at a density of 3000-7500 cells/well (in 200μl medium) in culture plates followed by incubation for 24h at 37 °C in humidified 5%CO2/95% air atmospheric conditions. The medium was removed; the compounds were added to the plates at 10 μM concentrations (in 0.1% DMSO) in triplicates, followed by incubation for 48h. DMSO (0.1%) was used as control. After incubation, medium was removed followed by the addition of PI (25 μl, 50μg/mL in water/medium) to each well of the plates. At -80 °C, the plates were allowed to freeze for 24 h, followed by thawing at 25 °C. A fluorometer (Polar-Star BMG Tech) was used to record the readings at excitation and emission wavelengths of 530 and 620 nm for each well. The percentage cytotoxicity of compounds was calculated using the following formula: […]

The subject of data set [3] is MCF-7 human breast cancer cell line. Nature of the data set: Flow cytometric cell cycle analysis. Format: cell-based. (In general: Flow cytometry measures light scatter and fluorescence of single cells or particles in a stream.)
The next data set has as its system Caspase-8. Briefly: Caspase-8 activation assay. In kind it is cell-based, human. The note with it: MCF-7 cells. On the procedure:
(§4) Refer to Supplementary Appendix A.
(Cells are Plated in a density of 1.2 – 1.8 × 10,000 cells/well in a volume of 100µl complete growth medium + 100 ul of the tested compound per well in a 96-well plate for 24 hours before the enzyme assay for Tubulin.). The absorbance of each microwell was read on a spectro-photometer at 450 nm. A standard curve is prepared from 7human Caspase-8 standard dilutions and human Caspase-8 concentration determined.

Data set [4] deals with pancreatic (Panc-1) cancer cell line. Briefly: Antiproliferative assay, Panc-1. Format: cell-based. The conditions noted are these: Homo sapiens, read-out: Antiproliferative activity IC50 ± SEM, Panc-1.
From the text: as §1, §2, §3

Another data set relates to Bcl-2. Briefly: Bcl-2 level assay. The note with it: MCF-7 cells.
In data set [5] the test system is colon (HT-29) cancer cell line. Nature of the data set: Antiproliferative assay, HT-29. Format: cell-based. The conditions noted are these: Homo sapiens, read-out: Antiproliferative activity IC50 ± SEM, HT-29.
The subject of data set [6] is lung (A-549) cancer cell line. Nature of the data set: Antiproliferative assay, A-549. In kind it is cell-based. The note with it: Homo sapiens, A549; read-out: Antiproliferative activity IC50 ± SEM, A-549.
From the text: as §1, §2, §3

A short description of a further data set: in vitro. The conditions noted are these: human.
A further data set deals with Caspase-3. Briefly: Caspase-3 activation assay. Format: cell-based, human. The conditions noted are these: MCF-7 cells. The method, then:
as §4
Allow all reagents to reach room temperature before use. Gently mix all liquid reagents prior to use. Determine the number of 8-well strips needed for the assay. Insert these in the frame(s) for current use. Add 100 μl of the Standard Diluent Buffer to the zero standard wells. Well(s) reserved for chromogen blank should be left empty. Add 100 μl of standards and controls or diluted samples to the appropriate microtiter wells. The sample dilution chosen should be optimized for each experimental system. Tap gently on side of plate to mix. Cover wells with plate cover and incubate for 2 hours at room temperature. Thoroughly aspirate or decant solution from wells and discard the liquid, Wash wells 4 times. […] Tap gently on the side of the plate to mix. Cover plate with plate cover and incubate for 1 hour at room temperature. Thoroughly aspirate or decant solution from wells and discard the liquid, Wash wells 4 times. Add 100 μl Anti-Rabbit IgG HRP Working Solution to each well except the chromogen blank(s). Prepare the working dilution as described in Preparing IgG HRP. Cover wells with the plate cover and incubate for 30 minutes at room temperature. Thoroughly aspirate or decant solution from wells and discard the liquid. Wash wells 4 times. Add 100 μl of Stabilized Chromogen to each well. The liquid in the wells will begin to turn blue. Incubate for 30 minutes at room temperature and in the dark. The incubation time for chromogen substrate is often determined by the microtiter plate reader used. Many plate readers have the capacity to record a maximum optical density (O.D.) of 2.0. The O.D. values should be monitored, and the substrate reaction stopped before the O.D. of the positive wells exceeds the limits of the instrument. The O.D. values at 450 nm can only be read after the Stop Solution has been added to each well. […] Add 100 μl of Stop Solution to each well. Tap side of plate gently to mix. The solution in the wells should change from blue to yellow. Read the absorbance of each well at 450 nm having blanked the plate reader against a chromogen blank composed of 100 μl each of Stabilized Chromogen and Stop Solution. Read the plate within 2 hours after adding the Stop Solution. Use a curve fitting software to generate the standard curve. […] Read the concentrations for unknown samples and controls from the standard curve. Multiply value(s) obtained for sample(s) by the appropriate dilution factor to correct for the dilution in step 3.

Data set [7] concerns breast (MCF-7) cancer cell line. More on the design: method as in Voigtlaender et al., 2018. The note with it: ref Voigtlaender et al., 2018, cited from earlier work; for IC50: read-out: IC50 against the MCF-7 cell line.
For data set [8], the system named is panel of cancer cell lines. Also on record: method as in Voigtlaender et al., 2018. The conditions noted are these: ref Voigtlaender et al., 2018; read-out: GI50 against a panel of cancer cell lines; cited from earlier work.

Molecules are shown by their SMILES. Values joined by “and” are separate entries in the source; they are usually repeats but may differ in a detail not shown here. Equal values may be shown once. Read-outs that look alike come from different tables or passages of the source.

Sequence of HER-2 (P04626 676-1255 limits assumed): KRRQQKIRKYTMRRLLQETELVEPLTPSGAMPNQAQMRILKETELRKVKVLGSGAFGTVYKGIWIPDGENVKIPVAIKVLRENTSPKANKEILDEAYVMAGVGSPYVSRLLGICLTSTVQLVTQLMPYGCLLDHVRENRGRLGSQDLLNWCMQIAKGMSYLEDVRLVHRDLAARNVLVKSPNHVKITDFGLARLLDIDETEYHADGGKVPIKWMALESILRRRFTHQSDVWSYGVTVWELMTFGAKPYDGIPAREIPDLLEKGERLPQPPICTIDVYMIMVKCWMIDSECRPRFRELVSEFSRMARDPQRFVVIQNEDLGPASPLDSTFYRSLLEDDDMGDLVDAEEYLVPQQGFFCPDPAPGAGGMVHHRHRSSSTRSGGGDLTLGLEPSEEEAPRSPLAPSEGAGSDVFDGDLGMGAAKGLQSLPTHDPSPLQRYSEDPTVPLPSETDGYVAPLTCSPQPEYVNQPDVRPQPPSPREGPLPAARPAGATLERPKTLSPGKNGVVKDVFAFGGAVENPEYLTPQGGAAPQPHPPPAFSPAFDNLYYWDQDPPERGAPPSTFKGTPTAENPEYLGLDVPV
Procedure for Bax: Bring all reagents, except the human Bax-α Standard, to room temperature for at least 30 minutes prior to opening. The human Bax-α Standard solution should not be left at room temperature for more than 10 minutes. All standards, controls and samples should be run in duplicate. Refer to the Assay Layout Sheet to determine the number of wells to be used and put any remaining wells with the desiccant back into the pouch and seal the ziploc. Store unused wells at 4 °C. Pipet 100 μL of Assay Buffer into the S0 (0 pg/mL standard) wells. Pipet 100 μL of Standards #1 through #6 into the appropriate wells. Pipet 100 μL of the Samples into the appropriate wells. Tap the plate gently to mix the contents. Seal the plate and incubate at room temperature on a plate shaker for 1 hour at ~500 rpm. Empty the contents of the wells and wash by adding 400 μL of wash solution to every well. Repeat the wash 4 more times for a total of 5 washes. After the final wash, empty or aspirate the wells and firmly tap the plate on a lint free paper towel to remove any remaining wash buffer. Pipet 100 μL of yellow Antibody into each well, except the Blank. Seal the plate and incubate at room temperature on a plate shaker for 1 hour at ~500 rpm. Empty the contents of the wells and wash by adding 400 μL of wash solution to every well. Repeat the wash 4 more times for a total of 5 washes. After the final wash, empty or aspirate the wells and firmly tap the plate on a lint free paper towel to remove any remaining wash buffer. Add 100 μL of blue Conjugate to each well, except the Blank. Seal the plate and incubate at room temperature on a plate shaker for 30 minutes at ~500 rpm. Empty the contents of the wells and wash by adding 400 μL of wash solution to every well. Repeat the wash 4 more times for a total of 5 washes. After the final wash, empty or aspirate the wells and firmly tap the plate on a lint free paper towel to remove any remaining wash buffer. Pipet 100 μL of Substrate Solution into each well. Incubate for 30 minutes at room temperature on a plate shaker at ~500 rpm. Pipet 100 μL Stop Solution to each well. Blank the plate reader against the Blank wells, read the optical density at 450 nm. Calculate the average net Optical Density (OD) bound for each standard and sample by subtracting the average Blank OD from the average OD for each standard and sample. Using linear graph paper, plot the Average Net OD for each standard versus Bax concentration in each standard. Approximate a straight line through the points. The concentration of Bax in the unknowns can be determined by interpolation.
Procedure for Bcl-2: Mix all reagents thoroughly without foaming before use. Wash the microwells twice with approximately 300 μL Wash Buffer per well with thorough aspiration of microwell contents between washes. Take caution not to scratch the surface of the microwells. After the last wash, empty the wells and tap microwell strips on absorbent pad or paper towel to remove excess Wash Buffer. Use the microwell strips immediately after washing or place upside down on a wet absorbent paper for not longer than 15 minutes. […] Add 100 μL of Sample Diluent in duplicate to all standard wells and to the blank wells. […] Add 100 μL of Sample Diluent, in duplicate, to the blank wells. Add 80 μL of Sample Diluent, in duplicate, to the sample wells. Add 20 μL of each Sample, in duplicate, to the designated wells. Add 50 μL of diluted biotin-conjugate to all wells, including the blank wells. Cover with a plate cover and incubate at room temperature, on a microplate shaker at 100 rpm if available, for 2 hours. Remove plate cover and empty the wells. Wash microwell strips 3 times as described in step 2. Add 100 μL of diluted Streptavidin-HRP to all wells, including the blank wells. Cover with a plate cover and incubate at room temperature, on a microplate shaker at 100 rpm if available, for 1 hour. Remove plate cover and empty the wells. Wash microwell strips 3 times as described in step 2. […] Pipette 100 μl of mixed TMB Substrate Solution to all wells, including the blanks. Incubate the microwell strips at room temperature (18° to 25°C) for about 15 minutes, if available on a rotator set at 100 rpm. Avoid direct exposure to intense light. The point, at which the substrate reaction is stopped, is often determined by the ELISA reader. Many ELISA readers record absorbance only up to 2.0 O.D. Therefore, the color development within individual microwells must be watched by the person running the assay and the substrate reaction stopped before positive wells are no longer properly detectable. Stop the enzyme reaction by quickly pipetting 100 μL of Stop Solution into each well, including the blank wells. It is important that the Stop Solution is spread quickly and uniformly throughout the microwells to completely inactivate the enzyme. Results must be read immediately after the Stop Solution is added or within one hour if the microwell strips are stored at 2 - 8°C in the dark. Read absorbance of each microwell on a spectrophotometer using 450 nm as the primary wavelength.
Procedure for Cytochrome C: This lysate was diluted in Standard Diluent Buffer over the range of the assay and measured for cytochrome C content. (Cells are Plated in cells/well in a volume of 100µl complete growth medium + 100 µl of the tested compound + 50 µl of 1X biotin conjugated antibody+ 100 µl of 1X streptavidin-HRP+ 100 µL TMB substrate solution of per well in a 96-well plate for 24 hours before assay).
Procedure for EGFR: 5ʹ upstream to the EGFR sequence comprised a sequence that encoded (His)6. Sf-9 cells were infected for 72h for protein expression. The pellets of Sf-9 cells were solubilized in a buffer containing sodium vanadate (100 μM), aprotinin (10 μg/mL), triton (1%), HEPES buffer(50mM), ammonium molybdate (10 μM), benzamidine HCl (16 μg/mL), NaCl (10 mM),leupeptin (10 μg/mL) and pepstatin (10 μg/mL) at 0°C for 20 min at pH 7.4, followed by centrifugation for 20 min. To eliminate the nonspecifically bound material, a Ni-NTA super flow packed column was used to pass through and wash the crude extract supernatant first with 10mM and then with 100 mM imidazole. Histidine-linked proteins were first eluted with 250 and then with 500 mM imidazole subsequent to dialysis against NaCl (50 mM), HEPES (20 mM), glycerol (10%) and 1 μg/mL each of aprotinin, leupeptin and pepstatin for 120 min. The purification was performed either at 4 °C or on ice. To record autophosphorylation level, EGFR kinase assay was carried out on the basis of DELFIA/Time-Resolved Fluorometry. […] Each compound (10 μL) was incubated with recombinant enzyme (10 μL, 5 ng for EGFR, 1:80 dilution in 100 mM HEPES) for 10 min at 25 °C, subsequent to the addition of 5X buffer (10 μL, containing 2 mM MnCl2, 100 μM Na3VO4, 20 mM HEPES and 1 mM DTT) and ATP-MgCl2 (20 μL, containing 0.1 mM ATP and 50 mM MgCl2) and incubation for 1h. The negative and positive controls were included in each plate by the incubation of enzyme either with or without ATP-MgCl2. The liquid was removed after incubation and the plates were washed thrice using a wash buffer. The Europium-tagged antiphosphotyrosine antibody (75 μL, 400 ng) was added to each well followed by incubation of 1h and then washing of the plates using buffer. […] The autophosphorylation percentage inhibition by compounds was calculated using the following equation:
The majority of signals detected by antiphosphotyrosine antibody were from EGFR because the enzyme preparation contained low impurities.
Procedure for HER-2: The ADP-Glo™ Kinase Assay was used for kinase activity detection, related kinases information: HER-2 (ab60866, Abcam), with a concentration of 100 ng/mL. Target compounds were dissolved in DMSO to obtain drug solutions with different concentrations, and the compound concentrations in the final reaction system (100 μL) were 1 nM, 20 nM, 40 nM, 80 nM, and 100 nM, respectively. 10μL of the solution containing compounds was transferred to a 96-well plate, then added 40 μL of 1 × kinase buffer (50 mM HEPES, pH 7.5) to each well, and mixed the mixture in the 96-well plate on a shaker for 10 min. Next, added 25 μL of ADP-Glo™ reagent to the above wells, mixed and incubated for another 40 min. Distributed 10 μL kinase detection reagent to the reaction and incubated for 30 min. Finally, the full-wavelength microplate reader was used to record the OD value.
Procedure for in vitro: MTT assay was performed to investigate the effect of the synthesized compounds on mammary epithelial cells (MCF-10A). The cells were propagated in medium consisting of Ham's F-12 medium/ Dulbecco's modified Eagle's medium (DMEM) (1:1) supplemented with 10% foetal calf serum, 2 mM glutamine, insulin (10 μg/mL), hydrocortisone (500 ng/mL) and epidermal growth factor (20 ng/mL). Trypsin ethylenediamine tetra acetic acid (EDTA) was used to passage the cells after every 2-3 days. 96-well flat-bottomed cell culture plates were used to seed the cells at a density of 10^4 cells mL^-1. The medium was aspirated from all the wells of culture plates after 24 h followed by the addition of synthesized compounds (in 200 μL medium to yield a final concentration of 0.1% (v/v) dimethyl sulfoxide) into individual wells of the plates. Four wells were designated to a single compound. The plates were allowed to incubate at 37°C for 96 h. Afterwards, the medium was aspirated and 3-[4,5-dimethylthiazol-2-yl]-2,5-diphenyltetrazolium bromide (MTT) (0.4 mg/mL) in medium was added to each well and subsequently incubated for 3 h. The medium was aspirated and 150 μL dimethyl sulfoxide (DMSO) was added to each well. The plates were vortexed followed by the measurement of absorbance at 540 nm on a microplate reader.

For orientation: IC50 means the concentration at which inhibition is half-maximal. In general, GI50 refers to the concentration giving 50% growth inhibition. A word on the viability: it is a read-out of living cells in per cent, often relative to untreated cells. A lower viability goes with more harm to the cells. With `O=c1[nH]c2ccccc2c(O)c1/C=N/Nc1ccc([N+](=O)[O-])cc1[N+](=O)[O-]` [Compound 5a, (E)-3-((2-(2,4-Dinitrophenyl)hydrazono)methyl)-4-hydroxyquinolin-2(1H)-one], in the data set with Bax, the “Bax Conc” value is 320 pg/mL and 320 ± 2 pg/mL. Also, the “Bax Fold change” value in the data set on Bax (versus control) was 35. For the same molecule, the IC50 against HER-2 worked out at 0.033 ± 0.002 µM; against EGFR, 0.087 ± 0.005 µM; in [2], 0.034 ± 0.003 µM; in data set [4] it was 0.038 ± 0.003 µM; in data set [5], 0.038 ± 0.003 µM; in data set [6] it was 0.036 ± 0.003 µM. In addition, the “Times less potent than lapatinib, HER-2 inhibition” value at HER-2 (ratio to lapatinib IC50) is recorded as 1.3. For the same molecule, the “Caspase-9 Conc” value with Caspase-9 turned out to be 24 ± 1 ng/mL. The “Caspase-9 Fold change” value with Caspase-9 (versus control) is 24. Besides, the “Fold less effective than erlotinib (GI50)” value in data set [1] is given as 1.2. This molecule also came in with a GI50 in [1] (Homo sapiens, average IC50 over the four cancer cell lines) of 0.037 µM. Further, the “Cytochrome C Conc” value in the data set with Cytochrome C came to 0.85 ng/mL. The “Cytochrome C Fold change” value in the data set with Cytochrome C (versus control) amounted to 17. Also, the “Percentage of cells in G2/M phase” value in data set [3] stood at 1.94%. Moreover, the “Percentage of cells in S phase” value in data set [3] (control 26.82%) is reported as 15.65%. Further, the “Caspase-8 Conc” value with Caspase-8 is listed as 2.65 ± 0.25 ng/mL. The “Caspase-8 Fold change” value in the data set with Caspase-8 (versus control) worked out at 29. In addition, the “Bcl-2 Conc” value with Bcl-2 is recorded as 0.70 ng/mL. Further, the “Bcl-2 Fold reduction” value with Bcl-2 (versus control) is 7. Moreover, the viability at 4 days, 50 µM in the data set “in vitro” worked out at 88%. Further, in the data set on Caspase-3, the “Caspase-3 Conc” value was determined as 570 ± 5 pg/mL. The “Caspase-3 Fold change” value with Caspase-3 (versus control) was determined as 9.0.

Consider `C#Cc1cccc(Nc2ncnc3cc(OCCOC)c(OCCOC)cc23)c1` [Erlotinib, reference compound], for which the IC50 in data set [7] was 0.04 µM; in [2], 0.04 ± 0.003 µM; in data set [4], 0.03 ± 0.003 µM; in [5] it was 0.03 ± 0.003 µM; in [6] it was 0.03 ± 0.003 µM.

As for `O=c1[nH]c2ccccc2c(O)c1/C=N/c1ccc(NS(=O)(=O)c2ncccn2)cc1` [Compound III], the “Times more potent than erlotinib, MCF-7” value in [7] (ratio of IC50 values) is reported as 1.8. Also, the IC50 in data set [7] is 0.023 µM. The GI50 in [8] is 0.025 µM.
